Test results taken from article PMC3997483, “Aminostyrylbenzofuran Directly Reduces Oligomeric Amyloid-β and Reverses Cognitive Deficits in Alzheimer Transgenic Mice” (PLoS ONE, 2014).

Test system: SD rats
Assay: 2-week repeated oral dose toxicity study
Type: in vivo
Settings: for A / G ratio / ALP / ALT / AST / Albumin / B / C ratio / BUN / CHO / CK / CRE / Glucose / K^+ / LDH / Na^+ / T-Bil / TG (triglyceride) / TP: serum
Description: KMS88009 was orally administered once a day by gavage for 14 consecutive days at dose level of 0 (vehicle), 100, 300 and 1,000 mg/kg (n = 5 per group). […] Organs were collected at necropsy; adrenal, kidney, thymus, spleen, heart, lung, liver, testis and brain. The absolute organ weights were measured and the organs-to-body weight ratios were calculated. Blood samples for hematological evaluation were collected from vein of animals under ether anesthesia. Food was withheld overnight before necropsy and blood collections. EDTA was used as an anticoagulant for hematology samples. White blood cell (WBC), red blood cell (RBC), hemoglobin concentration (HGB), hematocrit (HCT), mean corpuscular volume (MCV), mean corpuscular hemoglobin (MCH), mean corpuscular hemoglobin concentration (MCHC), cell hemoglobin concentration mean (CHCM), cell hemoglobin (CH), red cell distribution width (RDW), hemoglobin distribution width (HDW), platelet count (PLT), mean platelet volume (MPV) and reticulocyte were measured by a hematological autoanalyzer (ADVIA 120, Bayer, USA). To get the serum for biochemical analyses, blood samples in a separation tube were centrifuged at 4,000 rpm for 10 min on the day of necropsy. The serum was kept frozen at -70°C until analysis. Sodium citrate was used as an anticoagulant for biochemical analyses. Serum biochemical parameters including aspartate aminotransferase (AST), alanine aminotransferase (ALT), alkaline phosphatase (ALP), total bilirubin (T-Bil), albumin, total protein (TP), albumin/globulin ratio (A/G ratio), glucose, total cholesterol (CHO), triglyceride (TG), lactate dehydrogenase (LDH), creatine kinase (CK), blood urea nitrogen (BUN), creatinine (CRE), blood urea nitrogen/creatinine ratio (B/C ratio), Na^+, K^+ and Cl^- were evaluated by an autoanalyzer (Shimadzu CL-7200, Shimadzu Co., Japan).
All data for single and 2-week repeated oral dose toxicity studies were expressed as the mean ± SD Difference between control and treated groups were evaluated with one-way analysis of variance (ANOVA) followed by Dunnett's test. Value P<0.05 was taken as being statistically significant. Statistical analyses were performed using GraphPad Prism software (USA).

[1] = rats PO 1,000 mg/kg/day, 2 weeks

COc1ccc2cc(C=Cc3ccc(N(C)C)cc3)oc2c1 [KMS88009, 6-methoxy-2-(4-dimethylaminostyryl) benzofuran]
Body weight (rats PO 300 mg/kg/day, day 11): 317.6 ± 17.0 g | Body weight (rats PO 300 mg/kg/day, day 14): 338.5 ± 16.9 g | Abnormal gross findings of necropsy (changed animals / total) [1]: 0 / 5 | Basophils [1]: 0.01 ± 0.01 x10^3/μL | Body Weight (at necropsy) [1]: 319.932 ± 12.441 g | Brain weight [1]: 1.922 ± 0.009 g | CH [1]: 20.0 ± 0.5 pg | CHCM [1]: 34.1 ± 0.4 g/dL | Eosinophils [1]: 0.05 ± 0.04 x10^3/μL | HDW [1]: 2.29 ± 0.09 g/dL | Heart weight [1]: 1.074 ± 0.065 g | Hematocrit [1]: 42.1 ± 2.2% | Hemoglobin [1]: 14.0 ± 0.8 g/dL | LUC [1]: 0.06 ± 0.04 x10^3/μL | Left adrenal weight [1]: 0.025 ± 0.004 g | Left kidney weight [1]: 1.342 ± 0.067 g | Left testis weight [1]: 1.366 ± 0.053 g | Liver weight [1]: 11.173 ± 0.202 g | Lung weight [1]: 1.279 ± 0.094 g | Lympocytes [1]: 6.50 ± 3.11 x10^3/μL | MCH [1]: 19.6 ± 0.5 pg | MCHC [1]: 33.3 ± 0.6 g/dL | MCV [1]: 59.0 ± 1.0 fL | MPV [1]: 7.58 ± 0.3 fL | Monocytes [1]: 0.13 ± 0.05 x10^3/μL | Mortality (dead animals / total number of animals) [1]: 0 / 5 | Neutrophils [1]: 1.08 ± 0.46 x10^3/μL | Platelet [1]: 1325 ± 141 x10^3/μL | RBC [1]: 7.14 ± 0.27 x10^6/μL | RDW [1]: 12.1 ± 0.2% | Rate body weight / brain [1]: 0.601 ± 0.024% | Rate body weight / heart [1]: 0.336 ± 0.014% | Rate body weight / left adrenal [1]: 0.008 ± 0.001% | Rate body weight / left kidney [1]: 0.420 ± 0.025% | Rate body weight / left testis [1]: 0.427 ± 0.025% | Rate body weight / liver [1]: 3.495 ± 0.093% | Rate body weight / lung [1]: 0.400 ± 0.030% | Rate body weight / right adrenal [1]: 0.008 ± 0.001% | Rate body weight / right kidney [1]: 0.418 ± 0.030% | Rate body weight / right testis [1]: 0.427 ± 0.021% | Rate body weight / spleen [1]: 0.234 ± 0.031% | Rate body weight / thymus [1]: 0.194 ± 0.017% | Retic [1]: 307.4 ± 32.8 x10^3/μL | Right adrenal weight [1]: 0.026 ± 0.003 g | Right kidney weight [1]: 1.334 ± 0.067 g | Right testis weight [1]: 1.365 ± 0.036 g | Spleen weight [1]: 0.749 ± 0.112 g | Symptomatic signs [1]: - | Thymus weight [1]: 0.621 ± 0.073 g | WBC [1]: 7.83 ± 3.64 x10^3/μL | Body weight (rats PO 1,000 mg/kg/day, day 1): 228.3 ± 6.5 g | Body weight (rats PO 1,000 mg/kg/day, day 4): 251.1 ± 8.6 g | Body weight (rats PO 1,000 mg/kg/day, day 8): 296.4 ± 14.2 g | Body weight (rats PO 1,000 mg/kg/day, day 11): 323.0 ± 15.8 g | Body weight (rats PO 1,000 mg/kg/day, day 14): 346.6 ± 16.1 g | A / G ratio (rats PO 100 mg/kg/day, 2 weeks): 0.82 ± 0.08 | ALP (rats PO 100 mg/kg/day, 2 weeks): 723.4 ± 40.3 IU/L | ALT (rats PO 100 mg/kg/day, 2 weeks): 37.3 ± 6.2 IU/L | AST (rats PO 100 mg/kg/day, 2 weeks): 152.3 ± 47.1 IU/L | Albumin (rats PO 100 mg/kg/day, 2 weeks): 2.52 ± 0.18 g/dL | B / C ratio (rats PO 100 mg/kg/day, 2 weeks): 28.3 ± 6.1 | BUN (rats PO 100 mg/kg/day, 2 weeks): 12.2 ± 1.5 mg/dL | CHO (rats PO 100 mg/kg/day, 2 weeks): 79.4 ± 15.2 mg/dL | CK (rats PO 100 mg/kg/day, 2 weeks): 258.4 ± 54.3 IU/L | CRE (rats PO 100 mg/kg/day, 2 weeks): 0.44 ± 0.05 mg/dL | Glucose (rats PO 100 mg/kg/day, 2 weeks): 159.2 ± 23.5 mg/dL | K^+ (rats PO 100 mg/kg/day, 2 weeks): 4.58 ± 0.43 mmol/L | LDH (rats PO 100 mg/kg/day, 2 weeks): 168.0 ± 36.4 IU/L | Na^+ (rats PO 100 mg/kg/day, 2 weeks): 140.5 ± 1.2 mmol/L | T-Bil (rats PO 100 mg/kg/day, 2 weeks): 0.01 ± 0.01 mg/dL | TG (triglyceride) (rats PO 100 mg/kg/day, 2 weeks): 47.0 ± 29.5 mg/dL | TP (rats PO 100 mg/kg/day, 2 weeks): 5.66 ± 0.17 g/dL | A / G ratio (rats PO 300 mg/kg/day, 2 weeks): 0.77 ± 0.06 | ALP (rats PO 300 mg/kg/day, 2 weeks): 755.6 ± 165.7 IU/L | ALT (rats PO 300 mg/kg/day, 2 weeks): 32.9 ± 4.7 IU/L | AST (rats PO 300 mg/kg/day, 2 weeks): 149.2 ± 24.3 IU/L | Albumin (rats PO 300 mg/kg/day, 2 weeks): 2.4 ± 0.00 g/dL | B / C ratio (rats PO 300 mg/kg/day, 2 weeks): 29.6 ± 8.1 | BUN (rats PO 300 mg/kg/day, 2 weeks): 12.3 ± 2.8 mg/dL | CHO (rats PO 300 mg/kg/day, 2 weeks): 81.8 ± 11.6 mg/dL | CK (rats PO 300 mg/kg/day, 2 weeks): 222.0 ± 56.7 IU/L | CRE (rats PO 300 mg/kg/day, 2 weeks): 0.42 ± 0.04 mg/dL | Glucose (rats PO 300 mg/kg/day, 2 weeks): 148.0 ± 23.5 mg/dL | K^+ (rats PO 300 mg/kg/day, 2 weeks): 4.73 ± 0.26 mmol/L | LDH (rats PO 300 mg/kg/day, 2 weeks): 127.2 ± 47.0 IU/L | Na^+ (rats PO 300 mg/kg/day, 2 weeks): 139.8 ± 1.8 mmol/L | T-Bil (rats PO 300 mg/kg/day, 2 weeks): 0.02 ± 0.01 mg/dL | TG (triglyceride) (rats PO 300 mg/kg/day, 2 weeks): 29.4 ± 7.2 mg/dL | TP (rats PO 300 mg/kg/day, 2 weeks): 5.56 ± 0.23 g/dL | A / G ratio [1]: 0.76 ± 0.04 | ALP [1]: 736.0 ± 109.1 IU/L | ALT [1]: 32.7 ± 7.8 IU/L | AST [1]: 162.0 ± 19.1 IU/L | Albumin [1]: 2.44 ± 0.05 g/dL | B / C ratio [1]: 29.7 ± 2.0 | BUN [1]: 11.9 ± 0.8 mg/dL | CHO [1]: 80.4 ± 18.2 mg/dL | CK [1]: 260.2 ± 62.0 IU/L | CRE [1]: 0.4 ± 0.00 mg/dL | Glucose [1]: 141.3 ± 15.6 mg/dL | K^+ [1]: 4.87 ± 0.22 mmol/L | LDH [1]: 126.0 ± 53.9 IU/L | Na^+ [1]: 140.1 ± 1.2 mmol/L | T-Bil [1]: 0.02 ± 0.01 mg/dL | TG (triglyceride) [1]: 30.8 ± 7.7 mg/dL | TP [1]: 5.62 ± 0.19 g/dL
